Reference: patent US12370235B2, “Synthetic, non-natural antimicrobial peptides inspired by Staphylococcus auricularis delta toxin” (University of Saskatchewan, priority 2021, dated 2025)
Values after ≈ are worked out from the molar mass of the structure shown. Square brackets hold non-standard residues; d marks the D form. Peptide text beside a SMILES is read from it.

Legend:
S. aureus ATCC 29213 = test: MIC, broth dilution; type: cell-based, Staphylococcus aureus; conditions: Table 5; STIP3 variants, highest concentration 100 μg/mL
Summary of the method: (§1)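 Peptides (95% purity) were serially diluted 2-fold and mixed with bacteria diluted to OD 6×10^−4 in cation-adjusted Mueller Hinton broth. Standing cultures were incubated overnight at 37° C. MIC was the lowest peptide concentration with no observed growth.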

[1] = tested on: S. aureus ATCC 33592 (MRSA SCCmec type III); test: MIC, broth dilution; type: cell-based, Staphylococcus aureus; conditions: Table 5; STIP3 variants, highest concentration 100 μg/mL
Summary of the method: as §1

[2] = tested on: S. aureus ATCC BAA-1683 (MRSA SCCmec type IV); test: MIC, broth dilution; type: cell-based, Staphylococcus aureus; conditions: Table 5; STIP3 variants, highest concentration 100 μg/mL
Summary of the method: as §1

[3] = tested on: S. aureus ATCC BAA-2094 (MRSA SCCmec type V); test: MIC, broth dilution; type: cell-based, Staphylococcus aureus; conditions: Table 5; STIP3 variants, highest concentration 100 μg/mL
Summary of the method: as §1

[4] = tested on: S. aureus ATCC BAA-2313 (MRSA SCCmec type XI); test: MIC, broth dilution; type: cell-based, Staphylococcus aureus; conditions: Table 5; STIP3 variants, highest concentration 100 μg/mL
Summary of the method: as §1

[5] = tested on: S. aureus ATCC BAA-41 (MRSA SCCmec type II); test: MIC, broth dilution; type: cell-based, Staphylococcus aureus; conditions: Table 5; STIP3 variants, highest concentration 100 μg/mL
Summary of the method: as §1

[6] = tested on: S. aureus ATCC BAA-42 (MRSA SCCmec type VI); test: MIC, broth dilution; type: cell-based, Staphylococcus aureus; conditions: Table 5; STIP3 variants, highest concentration 100 μg/mL
Summary of the method: as §1

[7] = tested on: S. aureus ATCC BAA-44 (MRSA SCCmec type I); test: MIC, broth dilution; type: cell-based, Staphylococcus aureus; conditions: Table 5; STIP3 variants, highest concentration 100 μg/mL
Summary of the method: as §1

[8] = tested on: S. aureus / MRSA (ATCC MP-2 panel); type: cell-based, Staphylococcus aureus; conditions: in words
Method: In order to begin to characterize STIP3-1 and potential sites amenable to modification, an alanine scanning experiment was performed. A total of 16 peptides with single alanine substitutions were assessed to inform on the importance of individual residues to antimicrobial activity. […] Next a series of thirty STIP3-1 variants were designed, guided by the aforementioned alanine scan and a previous report that the central α-helical core of the S. aureus δ-toxin could be converted into AMP through the inclusion of additional lysine residues^39. The collection included ten members with single substitutions relative to STIP3-1 and others that incorporated a number of changes that were designed to increase overall and local cationic charge as well as hydrophobic character (Table 5). Each of the STIPs was screened, including STIP3-1 to STIP-31, for antibiotic activity against a methicillin-sensitive S. aureus test organism and a panel of 7 MRSA strains defined by distinct SCCmec genotypes (FIG. 2; ATCC MP-2).
Determination of minimum inhibitory concentrations. The MICs were measured for bioactive peptides identified from the initial screen. For bacterial studies, cation-adjusted Mueller Hinton (MH) broth was used as the growth medium whereas YPD was used for C. albicans. Bacterial cultures were diluted to a OD value of 6×10^−4 in MH broth and a 180 μl volume was mixed with 20 μl of peptide arrayed as 2-fold dilution series in a 96-well plate. For the positive control, 20 μl of sterile water was used. Plates were incubated as standing cultures overnight at 37° C. The lowest peptide concentration that resulted no observed microbial growth after an overnight treatment was defined as the MIC.

C. albicans MYA-2876 = test: MIC, YPD broth; type: cell-based, Candida albicans; conditions: Table 8
Summary of the method: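 Yeast cells were diluted in YPD broth, and 180 μl aliquots were mixed with 20 μl of peptide from 2-fold serial dilutions in flat-bottom 96-well microtitre plates. Wells receiving 20 μl sterile water served as controls. After standing incubation overnight at 37° C, the MIC was taken as the lowest peptide concentration with no visible microbial growth.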

C. albicans Y537 = test: MIC, YPD broth; type: cell-based, Candida albicans; conditions: Table 8
[9] = Circular dichroism spectroscopy; type: physicochemical; conditions: CD, 50% (v/v) TFE
Summary of the method: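 Secondary structure of peptides dissolved in water at 0.3–0.5 mg/mL was assessed by CD. Spectra were recorded from 180 to 260 nm at room temperature in a 0.1 cm quartz cuvette; water and 50% (v/v) TFE conditions were compared.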

MRSA ATCC 33592 [10] = test: SYTOX Green membrane integrity assay; type: cell-based, Staphylococcus aureus; conditions: one fourth to four-fold the MIC
Method: (§2) Membrane disruption and depolarization are commonly reported mechanisms of AMP action. Two indirect assays that rely on fluorescent dyes were employed to assess the interaction of STIP3-29 and D-STIP3-29 with bacterial membranes. First, changes to SYTOX fluorescence was measured when MRSA ATCC 33592 was treated with increasing peptide concentrations ranging from one fourth to four-fold the MIC. […] Next, DiSC3(5), a cationic dye that binds to polarized membranes was used to report on possible depolarization related to AMP treatment. […] Thus, without wishing to be bound by theory, a more conservative explanation of the results is that the cationic peptides increase membrane permeability to SYTOX and that the like-charge of the AMPs to the reporter of polarization may confound the interpretation of the indirect assay. For example, the AMPs may simply displace the self-quenching DiSC3(5) molecules from the membrane surface without causing depolarization.

MRSA ATCC 33592 [11] = test: DiSC3(5) membrane polarization assay; type: cell-based, Staphylococcus aureus; conditions: 1.56 to 25 μg/mL
Method: as §2

HeLa cells = type: cell-based; conditions: 24 h, alamarBlue
Method: Peptide cytotoxicity. In vitro cytotoxicity was measured using the 3D EpiDerm skin tissues and HeLa Cells using a fluorescent reporter of cell viability, alamarBlue (ThermoFisher Scientific). 3D EpiDerm skin tissues (MatTek EPI-200-AFAB) were transferred to a 12 well plate containing 600 μL of AFAB-assay medium supplemented with 10% v/v alamarBlue. […] HeLa cells were seeded in a 96-well plate (2×10^4 cells/per well) and incubated overnight at 37° C. and 5% CO2 in a humidified incubator to prepare wells at ˜50% confluency of adherent cells. After the incubation, spent DMEM was removed and cells were washed with PBS. alamarBlue-containing medium was prepared by mixing Phenol Red-free DMEM with alamarBlue solution at a 9:1 ratio and a 180 μl volume was added to each well. Cells were treated with peptides varying from 3.25 to 200 μg/mL and then incubated for 24 h. The fluorescence intensities of treated cultures were normalized to values measured for an untreated control group. After the 24 h incubation period, alamarBlue fluorescence was measured at 590 nm upon excitation at 560 nm using Varioskan Lux plate reader (Thermo Scientific) plate reader.

CC[C@@H](C)[C@@H](NC(=O)[C@@H](Cc1c[nH]c2ccccc12)NC(=O)[C@@H](CCCCN)NC(=O)[C@H](NC(=O)[C@@H](CC(C)C)NC(=O)CNC(=O)CNC(=O)[C@H](NC(=O)[C@H](N)[C@H](C)O)C(C)C)C(C)C)C(=O)N[C@H](CC(C)C)C(=O)N[C@H](CCCCN)C(=O)N[C@@H](C(=O)N[C@@H](C(=O)N[C@H](CCCCN)C(=O)N[C@H](CCCCN)C(=O)N[C@H](Cc1ccccc1)C(=O)N[C@H](C)C(N)=O)C(C)C)[C@H](C)O [D-STIP3-29, TVGGLVKWILKTVKKFA-NH2] (H-[dT][dV]GG[dL][dV][dK][dW][dI][dL][dK][dT][dV][dK][dK][dF][dA]-NH2; N-terminus assumed)
MIC S. aureus ATCC 29213 (S. aureus ATCC 29213): 6.25 µg/mL (≈ 3.31 µM) | MIC S. aureus ATCC 33592 (III) [1]: 6.25 µg/mL (≈ 3.31 µM) | MIC S. aureus ATCC BAA 1683 (IV) [2]: 6.25 µg/mL (≈ 3.31 µM) | MIC S. aureus ATCC BAA 2094 (V) [3]: 6.25 µg/mL (≈ 3.31 µM) | MIC S. aureus ATCC BAA 2313 (XI) [4]: 6.25 µg/mL (≈ 3.31 µM) | MIC S. aureus ATCC BAA 41 (II) [5]: 6.25 µg/mL (≈ 3.31 µM) | MIC S. aureus ATCC BAA 42 (VI) [6]: 6.25 µg/mL (≈ 3.31 µM) | MIC S. aureus ATCC BAA 44 (I) [7]: 12.5 µg/mL (≈ 6.62 µM) | activity relative to the L-enantiomer [8]: just as active as the L-enantiomer | MIC C. albicans MYA-2876 (C. albicans MYA-2876): 50 µg/mL (≈ 26.5 µM) | MIC C. albicans Y537 (C. albicans Y537): 50 µg/mL (≈ 26.5 µM) | α helicity (%) [9]: 47% | SYTOX fluorescence change (MRSA ATCC 33592 [10]): rapid and concentration dependent increase in SYTOX fluorescence | DiSC3(5) fluorescence change (MRSA ATCC 33592 [11]): dose-dependent increase in fluorescence | IC50, HeLa cell survival (HeLa cells): 39 ± 3 µg/mL (≈ 20.7 µM)
